The values below come from ChEMBL document CHEMBL3870336, “The discovery of quinoline based single-ligand human H1 and H3 receptor antagonists” (Bioorg Med Chem Lett, 2016).

The structures appear in SMILES notation. Calls of active or inactive are those of the source. The rule behind the calls is not given here.

Data set [1] deals with T1, Histamine H1 receptor (Homo sapiens, UniProt P35367). Put plainly: Antagonist activity at human Histamine H1 receptor expressed in CHO cells assessed as inhibition of histamine-induced calcium flux preincubated for 30 mins followed by histamine addition by Fluo-4-AM dye based FLIPR assay. The class given is functional, cell-based.
In data set [2] the target is T2, Alpha-1B adrenergic receptor (Homo sapiens, UniProt P35368).
T2 sequence (P35368 whole entry): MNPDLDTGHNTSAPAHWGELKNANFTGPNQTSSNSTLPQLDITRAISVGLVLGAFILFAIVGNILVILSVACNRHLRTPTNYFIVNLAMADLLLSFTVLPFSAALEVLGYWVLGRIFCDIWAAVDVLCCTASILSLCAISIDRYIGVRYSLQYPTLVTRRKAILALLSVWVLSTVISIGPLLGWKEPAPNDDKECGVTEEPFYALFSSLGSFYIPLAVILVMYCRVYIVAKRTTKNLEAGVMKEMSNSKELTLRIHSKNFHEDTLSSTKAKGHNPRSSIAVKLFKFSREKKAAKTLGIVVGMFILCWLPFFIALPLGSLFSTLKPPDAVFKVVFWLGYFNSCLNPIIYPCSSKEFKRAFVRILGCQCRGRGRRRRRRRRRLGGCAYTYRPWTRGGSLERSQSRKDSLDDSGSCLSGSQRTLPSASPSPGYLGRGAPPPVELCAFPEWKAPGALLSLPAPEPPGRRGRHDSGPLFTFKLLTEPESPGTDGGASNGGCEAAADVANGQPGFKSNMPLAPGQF
Put plainly: Antagonist activity at adrenergic alpha1B receptor (unknown origin) expressed in Rat1 cells assessed as inhibition of phenylephrine-induced Ca2+ flux preincubated for 30 mins followed by phenylephrine addition by Fluo-4-AM-dye based FLIPR assay. The format is cell-based.

In data set [3] the target is Voltage-gated inwardly rectifying potassium channel KCNH2 (Homo sapiens, UniProt Q12809). Kind of data set: (§1) Displacement of [3H]-dofetilide from human ERG expressed in CHOK1 cell membranes incubated for 4 hrs in dark by luminescent assay. More on the design: species or system CHO-K1.
Data set [4] addresses Histamine H3 receptor (Homo sapiens, UniProt Q9Y5N1). Kind of data set: Antagonist activity at human Histamine H3 receptor expressed in CHO cell membranes assessed as inhibition of histamine-induced [35S]GTPgammaS binding after 2 to 6 hrs by scintillation proximity assay. The class given is functional.
The target of data set [5] is T3, Alpha-1A adrenergic receptor (Homo sapiens, UniProt P35348).
T3 sequence (P35348 whole entry): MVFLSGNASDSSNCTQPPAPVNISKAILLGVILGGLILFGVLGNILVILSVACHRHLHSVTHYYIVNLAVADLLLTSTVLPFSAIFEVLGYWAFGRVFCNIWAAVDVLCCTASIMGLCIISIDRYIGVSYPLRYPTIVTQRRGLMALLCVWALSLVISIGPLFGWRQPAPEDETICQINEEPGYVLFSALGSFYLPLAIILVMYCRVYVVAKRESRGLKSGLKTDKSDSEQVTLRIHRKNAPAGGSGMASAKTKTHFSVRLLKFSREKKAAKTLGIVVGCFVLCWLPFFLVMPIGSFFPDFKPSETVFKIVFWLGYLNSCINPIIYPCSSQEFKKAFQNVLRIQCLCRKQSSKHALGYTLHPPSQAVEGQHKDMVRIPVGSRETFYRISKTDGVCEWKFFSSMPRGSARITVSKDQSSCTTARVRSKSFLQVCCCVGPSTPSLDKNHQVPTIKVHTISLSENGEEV
Kind of data set: Antagonist activity at adrenergic alpha1A receptor (unknown origin) expressed in Rat1 cells assessed as inhibition of phenylephrine-induced Ca2+ flux preincubated for 30 mins followed by phenylephrine addition by Fluo-4-AM-dye based FLIPR assay. The class given is cell-based.

Data set [6] can be described thus: Lipophilicity, logD of compound at pH 7.4. The format is physicochemical. Conditions: buffer.
Data set [7] has as its target T1, Histamine H1 receptor. Put plainly: Antagonist activity at human Histamine H1 receptor expressed in CHO cells assessed as inhibition of histamine-induced calcium flux at 100 nM preincubated for 30 mins followed by histamine addition by Fluo-4-AM dye based FLIPR assay. The format is functional, cell-based. Conditions: read-out: pA2 (converted).
Data set [8] has as its target T1, Histamine H1 receptor. Put plainly: Antagonist activity at human Histamine H1 receptor expressed in CHO cells preincubated for 30 mins prior to histamine addition followed by subsequent washout and histamine challenge at 90 mins by Fluo-4 dye based FLIPR assay relative to azelastine. The class given is cell-based.
For data set [9], the target named is T1, Histamine H1 receptor. Put plainly: Antagonist activity at human Histamine H1 receptor expressed in CHO cells preincubated for 30 mins prior to histamine addition followed by subsequent washout and histamine challenge at 270 mins by Fluo-4 dye based FLIPR assay relative to azelastine. The format is cell-based.
A short description of data set [10]: Ratio of drug level in brain to plasma in rat. The format is ADME. Conditions: brain and plasma, read-out: BPR.
Data set [11] deals with hERG (KCNH2) (Homo sapiens, UniProt Q12809). The data set is described as §1. More on the design: species or system CHO-K1. Conditions: human, CHO-K1 cell membranes expressing human ERG, probe [3H]-dofetilide.
hERG (KCNH2), sequence (Q12809 whole entry): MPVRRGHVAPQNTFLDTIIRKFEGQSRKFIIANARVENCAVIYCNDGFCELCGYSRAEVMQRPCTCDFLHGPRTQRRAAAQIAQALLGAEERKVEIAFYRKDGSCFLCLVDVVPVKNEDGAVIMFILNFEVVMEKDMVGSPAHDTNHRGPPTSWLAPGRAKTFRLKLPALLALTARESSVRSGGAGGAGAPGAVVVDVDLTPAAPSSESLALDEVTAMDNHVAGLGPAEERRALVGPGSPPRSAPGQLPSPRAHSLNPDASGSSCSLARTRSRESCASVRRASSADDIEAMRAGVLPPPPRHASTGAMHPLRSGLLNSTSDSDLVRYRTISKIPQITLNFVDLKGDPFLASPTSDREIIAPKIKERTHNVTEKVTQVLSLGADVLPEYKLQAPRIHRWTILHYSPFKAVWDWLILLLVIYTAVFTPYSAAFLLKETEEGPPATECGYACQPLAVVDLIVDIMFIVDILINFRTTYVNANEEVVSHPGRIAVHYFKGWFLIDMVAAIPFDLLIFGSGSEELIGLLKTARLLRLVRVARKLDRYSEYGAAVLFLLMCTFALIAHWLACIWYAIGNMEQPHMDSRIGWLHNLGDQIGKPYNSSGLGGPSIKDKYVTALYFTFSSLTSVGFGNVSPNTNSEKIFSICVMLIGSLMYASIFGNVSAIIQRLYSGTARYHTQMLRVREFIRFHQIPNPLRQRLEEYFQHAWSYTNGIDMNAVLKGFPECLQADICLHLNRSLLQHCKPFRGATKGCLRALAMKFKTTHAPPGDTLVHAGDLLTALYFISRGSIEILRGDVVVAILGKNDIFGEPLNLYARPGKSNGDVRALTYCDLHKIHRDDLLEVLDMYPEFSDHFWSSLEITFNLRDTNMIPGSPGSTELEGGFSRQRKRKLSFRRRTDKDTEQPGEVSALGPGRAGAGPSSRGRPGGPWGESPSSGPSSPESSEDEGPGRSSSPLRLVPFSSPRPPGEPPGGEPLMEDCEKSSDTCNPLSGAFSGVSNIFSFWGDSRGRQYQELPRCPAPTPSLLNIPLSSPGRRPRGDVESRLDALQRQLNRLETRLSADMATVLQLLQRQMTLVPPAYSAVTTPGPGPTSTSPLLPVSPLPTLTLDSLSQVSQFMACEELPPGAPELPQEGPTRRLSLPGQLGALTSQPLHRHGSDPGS

T1 sequence (P35367 whole entry): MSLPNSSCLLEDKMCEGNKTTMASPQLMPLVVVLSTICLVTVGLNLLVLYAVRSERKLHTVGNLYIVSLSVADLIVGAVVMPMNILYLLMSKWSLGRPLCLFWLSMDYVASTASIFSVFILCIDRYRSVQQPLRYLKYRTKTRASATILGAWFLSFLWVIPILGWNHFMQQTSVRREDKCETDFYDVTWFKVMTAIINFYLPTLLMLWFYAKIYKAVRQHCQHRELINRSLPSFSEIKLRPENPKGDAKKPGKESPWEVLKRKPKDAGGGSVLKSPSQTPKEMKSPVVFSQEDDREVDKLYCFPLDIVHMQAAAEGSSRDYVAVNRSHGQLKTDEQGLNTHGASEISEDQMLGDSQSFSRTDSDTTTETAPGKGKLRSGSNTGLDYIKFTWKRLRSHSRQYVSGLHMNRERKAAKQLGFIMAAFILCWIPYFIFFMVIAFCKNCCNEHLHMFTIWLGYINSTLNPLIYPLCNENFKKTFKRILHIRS
Histamine H3 receptor, sequence (Q9Y5N1 whole entry): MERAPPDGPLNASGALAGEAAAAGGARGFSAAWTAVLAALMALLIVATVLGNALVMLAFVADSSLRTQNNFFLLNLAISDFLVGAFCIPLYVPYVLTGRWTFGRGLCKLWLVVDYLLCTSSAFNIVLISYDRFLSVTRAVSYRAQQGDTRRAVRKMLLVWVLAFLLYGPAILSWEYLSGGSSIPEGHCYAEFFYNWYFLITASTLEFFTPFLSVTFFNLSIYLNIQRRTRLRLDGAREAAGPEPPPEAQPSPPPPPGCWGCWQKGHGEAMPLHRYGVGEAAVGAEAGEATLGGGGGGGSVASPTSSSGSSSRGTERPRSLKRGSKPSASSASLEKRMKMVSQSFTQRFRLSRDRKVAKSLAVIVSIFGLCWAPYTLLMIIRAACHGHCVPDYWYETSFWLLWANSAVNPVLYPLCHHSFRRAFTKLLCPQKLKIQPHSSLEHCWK
Voltage-gated inwardly rectifying potassium channel KCNH2, sequence (Q12809 whole entry): as the sequence (Q12809 whole entry) above

Regarding `O=C(O)c1ccnc2c(N3CCN(CCc4ccc(OCCCN5CCCCCC5)cc4)CC3)cccc12`, the Ki in data set [1] was more than 2510 nM; in [2], more than 2000 nM; in [4], 1.58 nM; in data set [5], more than 2000 nM. Also, the IC50 in data set [3] is more than 63100 nM. For the same compound, the logD in data set [6] was -0.24.
On to `O=C(O)c1cnc2c(N3CCN(CCc4ccc(OCCCN5CCCCCC5)cc4)CC3)cccc2c1`, for which the Ki in data set [1] was 398 nM; in [2], more than 2000 nM; in data set [4], 1.58 nM; in data set [5], more than 2000 nM. In data set [3], this compound showed an IC50 of 20000 nM. The compound also gave a logD in data set [6] of -0.78.
In the case of `CCCCc1cc(N2CCN(CCc3ccc(OCCCN4CCCCCC4)cc3)CC2)c2nc(CCC(=O)O)ccc2c1`, the Ki is 12.6 nM in data set [1], 398 nM in [2], 0.794 nM in data set [4] and 316 nM in data set [5]. Besides, the Kb in data set [7] is 1.58 nM. This compound showed an IC50 in data set [3] of 2510 nM. Also, the logD in [6] was 2.3.
Turning to `c1cnc2c(N3CCN(CCCc4ccc(OCCCN5CCCCCC5)cc4)CC3)cccc2c1`, the Ki in data set [1] is 79.4 nM; in [2], 100 nM; in [4], 0.398 nM; in [5], 31.6 nM. The compound further showed an IC50 in data set [3] of 1000 nM. The compound also had a pH-dependent lipophilicity (logD) in data set [6] of 1.8.
Take `O=C(O)c1cc(N2CCN(CCc3ccc(OCCCN4CCCCCC4)cc3)CC2)c2ncccc2c1`: the Ki in data set [1] is more than 2510 nM; in [2], more than 2000 nM; in data set [4] it was 2 nM; in data set [5], more than 2000 nM. In addition, the IC50 in data set [3] was 39800 nM. Further, in data set [6], the logD was -1.
In the case of `O=C(O)CCc1ccc2cccc(N3CCN(CCc4ccc(OCCCN5CCCCCC5)cc4)CC3)c2n1`, the Ki in [1] was 12.6 nM; in data set [2], 200 nM; in [4], 1.58 nM; in [5], more than 2000 nM. Further, in [3], the IC50 was 15800 nM. The compound also displayed a pH-dependent lipophilicity (logD) in data set [6] of 0.18.
With `c1cnc2c(N3CCN(CCCCc4ccc(OCCCN5CCCCCC5)cc4)CC3)cccc2c1`, the Ki in [1] was 15.8 nM; in data set [2], 50.1 nM; in data set [4], 0.631 nM; in [5], 79.4 nM. Also, the Kb in data set [7] is 5.01 nM. In data set [3], this compound gave a concentration for half-maximal inhibition (IC50) of 1580 nM. Further, the inhibition result in [8] and in [9] was “Active” in each case. The compound further gave a logD in data set [6] of 2.2.
`O=C(O)c1ccc2cccc(N3CCN(CCc4ccc(OCCCN5CCCCCC5)cc4)CC3)c2n1`: the Ki was 251 nM in data set [1], more than 2000 nM in data set [2], 0.501 nM in [4] and more than 2000 nM in data set [5]. The logD in data set [6] was -0.37.
For `O=C(O)/C=C/c1ccc2cccc(N3CCN(CCc4ccc(OCCCN5CCCCCC5)cc4)CC3)c2n1`, the Ki in data set [1] is 200 nM; in data set [2], 79.4 nM; in data set [4] it was 1.58 nM; in [5], 63.1 nM. Besides, the IC50 in [3] was more than 63100 nM. For the same compound, the logD in data set [6] was 0.34.
On to `O=C(O)CCc1cnc2c(N3CCN(CCc4ccc(OCCCN5CCCCCC5)cc4)CC3)cccc2c1`, for which the Ki was 39.8 nM in [1], more than 2000 nM in data set [2], 1.26 nM in data set [4] and more than 2000 nM in [5]. For the same compound, in [3], the IC50 is 31600 nM. The same compound yielded a logD in data set [6] of -0.63.
Regarding `O=C(O)CCc1ccc2cc(Cc3ccccc3)cc(N3CCN(CCc4ccc(OCCCN5CCCCCC5)cc4)CC3)c2n1`, the Kp in [10] was 0.15. Also, the Ki in data set [1] was 25.1 nM; in [2], 251 nM; in data set [4], 0.316 nM; in data set [5], 50.1 nM. Besides, in [7], the Kb is 6.31 nM. In data set [3], this compound had an IC50 of 6310 nM. Besides, the inhibition result in [8] was “Active”. In [6], this compound yielded a logD of 1.9.
Consider `CCc1cc(N2CCN(CCc3ccc(OCCCN4CCCCCC4)cc3)CC2)c2nc(CCC(=O)O)ccc2c1`, for which the Ki in [1] was 15.8 nM; in data set [2] it was more than 2000 nM; in data set [4] it was 2 nM; in data set [5], 251 nM. Also, the Kb in [7] was 2.51 nM. In addition, in data set [6], the logD was determined as 1.
Take `O=C(O)c1ccc2cccnc2c1N1CCN(CCc2ccc(OCCCN3CCCCCC3)cc2)CC1`: the Ki in data set [1] is more than 2510 nM; in [2] it was more than 2000 nM; in [4], 1.26 nM; in [5], more than 2000 nM. Also, the logD in data set [6] is -0.12.
On to `O=c1c2ccccc2c(Cc2ccc(Cl)cc2)nn1C[C@H]1CCCN1CCCCc1ccc(OCCCN2CCCCCC2)cc1` [GSK-1004723], for which the IC50 at 4 h in [11] is 50.1 nM. Further, the inhibition entry in data set [8] and in [9] was “Active” in each case.
With `c1cnc2c(N3CCN(CCc4ccc(OCCCN5CCCCCC5)cc4)CC3)cccc2c1`, in data set [10], the Kp was more than 13. Further, the Ki was 20 nM in data set [1], 15.8 nM in data set [2], 0.501 nM in [4] and 7.94 nM in [5]. Also, the Kb in data set [7] is 10 nM. This compound also had an IC50 in data set [3] of 7940 nM. The inhibition entry in data set [8] and in data set [9] was “Active” throughout. For the same compound, in data set [6], the logD turned out to be 1.9.
